Measurements reported in ChEMBL document CHEMBL1136600, “Functional expression and characterization of EryA, the erythritol kinase of Brucella abortus, and enzymatic synthesis of L-erythritol-4-phosphate” (Bioorg Med Chem Lett, 2003).

Experiments:
Brucella abortus = assay: Kinetic parameter against EryA, erythritol kinase of brucella abortus expressed in Escherichia coli
[1] = tested on: Propionibacterium acidipropionici; assay: Kinetic parameters against EryA, erythritol kinase from Propionibacterium pentosaceum
[2] = Inhibition of 4-diphosphocytidyl-2-C-methyl-d-erythritol (CDP-ME) synthase

| Compound | Km (Brucella abortus) [µM] | k cat (Brucella abortus) [s⁻¹] | Km [1] [µM] | IC50 [2] [µM] |
| --- | --- | --- | --- | --- |
| Nc1ncnc2c1ncn2[C@@H]1O[C@H](COP(=O)(O)OP(=O)(O)OP(=O)(O)O)[C@@H](O)[C@H]1O | 9800 | 230 | 4800 | – |
| OC[C@@H](O)[C@@H](O)CO | 260 | 230 | 880 | – |
| C[C@@](O)(CO)[C@@H](O)COP(=O)(O)O | – | – | – | 1360 |
